Data from US20170007700A1, “COMPOSITIONS AND METHODS FOR BORON NEUTRON CAPTURE THERAPY” (THE CURATORS OF THE UNIVERSITY OF MISSOURI, priority 2014, published 2017).

Assay: Metabolic transformation of TAC and MAC in vivo (MALDI-MS of mouse urine)
Parameters: species or system mice
Conditions: for metabolic degradation in vivo: mice given TAC/MAC liposomes
Source text: One of the components of in vivo biodistribution study of TAC/MAC liposomes in mice was identification of any metabolic transformation of either TAC or MAC in the body. Metabolic degradation of TAC was not observed in vivo. […] Three main metabolites of MAC were identified in mouse urine by matrix-assisted laser desorption […] mass spectrometry (MALDI-MS) analysis and are illustrated in FIG. 4.

| Substance | main metabolites identified in mouse urine (MALDI-MS) | metabolic degradation in vivo |
| --- | --- | --- |
| K[nido-7-CH3(CH2)15-7,8-C2B9H11] [MAC] | Three | expelled without change |
| Na3[1-(2′-B10H9)-2-NH3B10H8] [TAC] | – | not observed |
